Reference: patent US12668600B2 (Kumquat Biosciences Inc., priority 2023, dated 2026)

What was measured:
Type in all cases: biochemical
KRAS WT = target: T1, KRAS WT (Homo sapiens, UniProt P01116); experiment: HTRF KRAS-SOS1 interaction assay, wildtype KRAS; settings: binned ≤2 μM / >2 μM, read-out: Inhibition of KRAS WT (IC50)
T1 construct: made in house; host or cells: E. coli, e.g. BL21 (DE3)
Method in brief: (§1)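 Read-out: HTRF ratio 665/620 nm after ≥10 min incubation of compound with GST-KRAS/anti-GST-Eu and His-hSOS1/anti-6His-XL665. Duplicate dose series, 10 μM down to 0.01 μM. Buffer HEPES pH 7.4, NaCl, DTT, BSA, Igepal.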

KRAS G12V = target: T2, KRAS G12V (Homo sapiens, UniProt P01116, G12V); experiment: HTRF KRAS-SOS1 interaction assay, KRAS G12V; settings: binned ≤2 μM / >2 μM, read-out: Inhibition of KRAS G12V (IC50)
T2 construct: made in house; host or cells: E. coli, e.g. BL21 (DE3)
Method in brief: as §1

KRAS G12S = target: T3, KRAS G12S (Homo sapiens, UniProt P01116, G12S); experiment: HTRF KRAS-SOS1 interaction assay, KRAS G12S; settings: binned ≤2 μM / >2 μM, read-out: Inhibition of KRAS G12S (IC50)
T3 construct: made in house; host or cells: E. coli, e.g. BL21 (DE3)
Method in brief: as §1

KRAS G12D = target: T4, KRAS G12D (Homo sapiens, UniProt P01116, G12D); experiment: HTRF KRAS-SOS1 interaction assay, KRAS G12D; settings: binned ≤2 μM / >2 μM, read-out: Inhibition of KRAS G12D (IC50)
T4 construct: made in house; host or cells: E. coli, e.g. BL21 (DE3)
Method in brief: as §1

Measured: IC50

T2 sequence (P01116 1-188 isoform P01116-2 G12V): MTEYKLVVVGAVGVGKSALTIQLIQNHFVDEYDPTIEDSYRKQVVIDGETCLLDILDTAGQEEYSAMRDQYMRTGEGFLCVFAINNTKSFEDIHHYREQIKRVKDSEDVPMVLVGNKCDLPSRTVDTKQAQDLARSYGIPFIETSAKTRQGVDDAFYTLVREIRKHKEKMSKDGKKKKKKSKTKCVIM
T3 sequence (P01116 1-188 isoform P01116-2 G12S): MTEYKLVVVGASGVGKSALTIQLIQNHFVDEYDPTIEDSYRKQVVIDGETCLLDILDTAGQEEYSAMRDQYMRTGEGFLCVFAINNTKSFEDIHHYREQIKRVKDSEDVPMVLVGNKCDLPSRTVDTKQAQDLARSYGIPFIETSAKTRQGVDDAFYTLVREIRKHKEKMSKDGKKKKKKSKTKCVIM
T1 sequence (P01116 1-188 isoform P01116-2): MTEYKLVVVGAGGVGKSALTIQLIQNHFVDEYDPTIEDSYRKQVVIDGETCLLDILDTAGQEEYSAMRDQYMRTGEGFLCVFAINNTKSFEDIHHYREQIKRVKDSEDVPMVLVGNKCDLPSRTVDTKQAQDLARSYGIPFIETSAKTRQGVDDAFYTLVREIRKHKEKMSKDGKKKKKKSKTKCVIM
T4 sequence (P01116 1-188 isoform P01116-2 G12D): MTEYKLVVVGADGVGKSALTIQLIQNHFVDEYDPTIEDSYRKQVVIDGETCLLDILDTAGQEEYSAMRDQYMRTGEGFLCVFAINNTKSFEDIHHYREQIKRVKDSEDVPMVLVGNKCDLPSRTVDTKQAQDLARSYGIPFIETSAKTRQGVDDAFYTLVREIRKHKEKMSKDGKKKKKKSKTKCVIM

C[S+]([O-])CCC[C@H](c1cccnc1N)N1CCOc2c(C(F)(F)F)c(-c3ccc(F)c4sc(N)c(C#N)c34)c(F)c3nc(OC[C@@]45CCCN4C[C@H](F)C5)nc1c23 (mixture of isomers) [Compound 691, 2-amino-4-(4-((1R)-1-(2-aminopyridin-3-yl)-4-(methylsulfinyl)butyl)-10-fluoro-2-(((2R,7aS)-2-fluorotetrahydro-1H-pyrrolizin-7a(5H)-yl)methoxy)-8-(trifluoromethyl)-5,6-dihydro-4H-[1,4]oxazepino[5,6,7-de]quinazolin-9-yl)-7-fluorobenzo[b]thiophene-3-carbonitrile]
≤ 2000 nM: all assays above

C[C@H](c1cc(F)cnc1N)N1CCOc2c(C(F)(F)F)c(-c3ccc(F)c4sc(N)c(C#N)c34)c(F)c3nc(OCC4(CN5CC[C@@H](F)C5)CC4)nc1c23 [Compound 644, 2-amino-4-(4-((R)-1-(2-amino-5-fluoropyridin-3-yl)ethyl)-10-fluoro-2-((1-(((R)-3-fluoropyrrolidin-1-yl)methyl)cyclopropyl)methoxy)-8-(trifluoromethyl)-5,6-dihydro-4H-[1,4]oxazepino[5,6,7-de]quinazolin-9-yl)-7-fluorobenzo[b]thiophene-3-carbonitrile]
≤ 2000 nM: all assays above

N#Cc1c(N)sc2c(F)ccc(-c3c(C(F)(F)F)c4c5c(nc(OC[C@@]67CCCN6CC(=C(F)F)C7)nc5c3F)N([C@H](CCC(F)(F)F)c3cccnc3N)CCO4)c12 [Compound 666, 2-amino-4-(4-((R)-1-(2-aminopyridin-3-yl)-4,4,4-trifluorobutyl)-2-(((S)-2-(difluoromethylene)tetrahydro-1H-pyrrolizin-7a(5H)-yl)methoxy)-10-fluoro-8-(trifluoromethyl)-5,6-dihydro-4H-[1,4]oxazepino[5,6,7-de]quinazolin-9-yl)-7-fluorobenzo[b]thiophene-3-carbonitrile]
≤ 2000 nM: all assays above

C=C1CN2CCC[C@@]2(COc2nc3c4c(c(C(F)(F)F)c(-c5ccc(F)c6sc(N)c(C#N)c56)c(F)c4n2)OCCN3[C@H](C)c2cc(F)cnc2N)C1 [Compound 620, 2-amino-4-(4-((R)-1-(2-amino-5-fluoropyridin-3-yl)ethyl)-10-fluoro-2-(((S)-2-methylenetetrahydro-1H-pyrrolizin-7a(5H)-yl)methoxy)-8-(trifluoromethyl)-5,6-dihydro-4H-[1,4]oxazepino[5,6,7-de]quinazolin-9-yl)-7-fluorobenzo[b]thiophene-3-carbonitrile]
≤ 2000 nM: all assays above

N#Cc1c(N)sc2c(F)ccc(-c3c(C(F)(F)F)c4c5c(nc(OC[C@@]67CCCN6C[C@H](F)C7)nc5c3F)N([C@H](CCC3COCCO3)c3cccnc3N)CCO4)c12 (mixture of isomers) [Compound 648, 2-amino-4-(4-((1R)-1-(2-aminopyridin-3-yl)-3-(1,4-dioxan-2-yl)propyl)-10-fluoro-2-(((2R,7aS)-2-fluorotetrahydro-1H-pyrrolizin-7a(5H)-yl)methoxy)-8-(trifluoromethyl)-5,6-dihydro-4H-[1,4]oxazepino[5,6,7-de]quinazolin-9-yl)-7-fluorobenzo[b]thiophene-3-carbonitrile]
≤ 2000 nM: all assays above

C[C@H](c1cc(Cl)cnc1N)N1CCOc2c(C(F)(F)F)c(-c3ccc(F)c4sc(N)c(C#N)c34)c(F)c3nc(OC[C@@]45CCCN4C[C@H](F)C5)nc1c23 (single isomer, unassigned) [Compound 766]
≤ 2000 nM: all assays above
